# Experiments:
# [1] = test system: Blastoschizomyces capitalus ATCC 10663; assay: Broth macrodilution MIC/MFC; format: cell-based
# Method: (§1) TMPN was screened against yeasts by the broth macrodilution assay according to the NCCLS [7]. Yeasts were suspended and diluted as recommended to yield final inocula ranging from 0.5-2.5×10^3 cfu/ml. Tests were performed in sterile 12 by 75 mm plastic tubes containing two-fold dilutions of TMPN in 0.165 M morpholinepropanesulfonic acid buffered RPMI 1640 medium (pH 7.0). One tube was again left drug free (but contained an equivalent volume of DMSO) for a turbidity control. Tubes were incubated without agitation at the appropriate temperature (see Fungal Strains section above). MICs were determined after 72 h for Cryptococcus and after 48 h for other yeast genera. The MIC was defined as the lowest concentration of TMPN that inhibited all visible growth of the test organism (optically clear).
# (§2) Minimum fungicidal concentrations (MFCs) were determined by subculturing 0.1 ml from each tube with no visible growth in the MIC broth macrodilution series onto the appropriate drug-free plates (see Fungal Strains section above).
# Candida albicans (7) = assay: Broth macrodilution MIC/MFC; format: cell-based
# Method: as §1, §2
# [2] = test system: Filobasidium uniguttulatum ATCC 24227; assay: Broth macrodilution MIC/MFC; format: cell-based
# Method: as §1, §2
# [3] = test system: Fluconazole-resistant Cryptococcus neoformans (4); assay: Broth macrodilution MIC/MFC; format: cell-based
# Method: as §1, §2
# K. apiculate ATCC 9774 = assay: Broth macrodilution MIC/MFC; format: cell-based
# Method: as §1, §2
# [4] = test system: Kluyveromyces marxianus ATCC 365534; assay: Broth macrodilution MIC/MFC; format: cell-based
# Method: as §1, §2
# [5] = test system: Rhodotorula mucilaginosa ATCC 9449; assay: Broth macrodilution MIC/MFC; format: cell-based
# Method: as §1, §2
# C. albicans (ATCC 90028) = assay: Video-enhanced DIC microscopy of yeast/hyphal morphology; format: cell-based, Candida albicans
# From the text: The mechanism of action of TMPN was investigated microscopically, Candida albicans (ATCC 90028) cultures were exposed to one quarter or one half times the broth macrodilution MIC of TMPN in DMSO, or an equivalent concentration of DMSO for controls, until late-log phase. Cells were examined using an Axioscope microscope (Carl Zeiss, Thornwood, N.Y.) equipped with standard differential interference contrast (DIC) using a Plan-Neofluar 100×/1.3 (oil immersion) objective. The microscope was coupled to a C24007-07 (imaging tube camera type) video camera, via a 4×extension tube (Carl Zeiss), and an analog control unit (Hammamatsu Photonic Systems Corp., Bridgewater, N.J.). Real-time digital contrast enhancement was done with an Argus 10 Image Processor (Hammamatsu). Single frame images were digitized directly or from videotaped sequences using a Sony UP-5600MD video/digital printer (Sony Electronics, Inc., Montvale, N.J.) and prepared for printing in Photoshop 5.0 (Adobe Systems, Mountain View, Calif.). Final images were printed with a NP-1600M Medical Color Printer (Codonics, Inc., Middleburg Heights, Ohio).
smiles,measurement,setting,value
"COc1cc(C=C[N+](=O)[O-])cc(OC)c1OC [TMPN, 1-(3′,4′,5′-trimethoxyphenyl)-2-nitro-ethylene]",MFC Range,[1],32 µg/mL
same,MIC Range,[1],8 µg/mL
same,share of isolates with MFC/MIC ratio <2,Candida albicans (7); C. albicans clinical isolates,71%
same,MIC Range,Candida albicans (7); Candida albicans (7),4 to 32 µg/mL
same,share of isolates with MFC/MIC ratio ≦2,Candida albicans (7); Candida albicans clinical isolates,71%
same,MFC Range,[2],2 µg/mL
same,MIC Range,[2],0.5 µg/mL
same,MFC Range,[3],4 to 16 µg/mL
same,MIC Range,[3],4 to 8 µg/mL
same,MFC Range,K. apiculate ATCC 9774,2 µg/mL
same,MIC Range,K. apiculate ATCC 9774,1 µg/mL
same,MFC Range,[4],4 µg/mL
same,MIC Range,[4],4 µg/mL
same,MFC Range,[5],8 µg/mL
same,MIC Range,[5],4 µg/mL
same,cells with hyphal extensions,C. albicans (ATCC 90028); one half times the TMPN MIC,not observed
same,growth morphology observed (FIG. 4 panel b),C. albicans (ATCC 90028); one half times the TMPN MIC,only yeast growth
same,growth rate,C. albicans (ATCC 90028); one half times the TMPN MIC,same rate as controls
same,hyphae seen,C. albicans (ATCC 90028); one quarter times the TMPN MIC,rarely seen
same,length of hyphae,C. albicans (ATCC 90028); one quarter times the TMPN MIC,< 20 μm
same,yeast/hyphae switching,C. albicans (ATCC 90028); sub-MIC exposure,did not exhibit yeast/hyphae switching
